According to PMC10504751, “Chalcone/1,3,4-Oxadiazole/Benzimidazole hybrids as novel anti-proliferative agents inducing apoptosis and inhibiting EGFR & BRAFV^600E” (BMC Chemistry, 2023):
Where two headings read alike, the source gives them in different places.

What was measured:
[1] = system: HCT-15; assay: NCI one-dose SRB anti-proliferative screen; format: cell-based; details: Homo sapiens, read-out: Cell growth inhibition %
Method in brief: (§1)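 Read-out: sulforhodamine B protein stain measured colorimetrically after exposure of the cells to test compound at 10 µM. This line formed one member of a 60-line panel spanning lung, leukaemia, melanoma, colon, renal, CNS, prostate, breast and ovarian origins.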

[2] = system: NCI-H322M; assay: NCI one-dose SRB anti-proliferative screen; format: cell-based; details: Homo sapiens, read-out: Cell growth inhibition %
Method in brief: as §1

[3] = system: CAKI-1; assay: NCI one-dose SRB anti-proliferative screen; format: cell-based; details: Homo sapiens, read-out: Cell growth inhibition %
Method in brief: as §1

[4] = system: KM12; assay: NCI one-dose SRB anti-proliferative screen; format: cell-based; details: Homo sapiens, read-out: Cell growth inhibition %
Method in brief: as §1

[5] = system: HOP-92; assay: NCI one-dose SRB anti-proliferative screen; format: cell-based; details: Homo sapiens, read-out: Cell growth inhibition %
Method in brief: as §1

[6] = system: NCI-H23; assay: NCI one-dose SRB anti-proliferative screen; format: cell-based; details: Homo sapiens, read-out: Cell growth inhibition %
Method in brief: as §1

[7] = system: DU-145; assay: NCI one-dose SRB anti-proliferative screen; format: cell-based; details: Homo sapiens, read-out: Cell growth inhibition %
Method in brief: as §1

[8] = system: MDA-MB-231/ATCC; assay: NCI one-dose SRB anti-proliferative screen; format: cell-based; details: Homo sapiens, read-out: Cell growth inhibition %
Method in brief: as §1

[9] = system: HS 578T; assay: NCI one-dose SRB anti-proliferative screen; format: cell-based; details: Homo sapiens, read-out: Cell growth inhibition %
Method in brief: as §1

[10] = system: IGROV1; assay: NCI one-dose SRB anti-proliferative screen; format: cell-based; details: Homo sapiens, IGROV-1, read-out: Cell growth inhibition %
Method in brief: as §1

[11] = system: MCF7; assay: NCI one-dose SRB anti-proliferative screen; format: cell-based; details: Homo sapiens, read-out: Cell growth inhibition %
Method in brief: as §1

[12] = system: SNB-75; assay: NCI one-dose SRB anti-proliferative screen; format: cell-based; details: Homo sapiens, read-out: Cell growth inhibition %
Method in brief: as §1

[13] = system: 786-0; assay: NCI one-dose SRB anti-proliferative screen; format: cell-based; details: Homo sapiens, read-out: Cell growth inhibition %
Method in brief: as §1

[14] = system: U251; assay: NCI one-dose SRB anti-proliferative screen; format: cell-based; details: Homo sapiens, U-251, read-out: Cell growth inhibition %
Method in brief: as §1

[15] = system: A549/ATCC; assay: NCI one-dose SRB anti-proliferative screen; format: cell-based; details: Homo sapiens, read-out: Cell growth inhibition %
Method in brief: as §1

[16] = system: A498; assay: NCI one-dose SRB anti-proliferative screen; format: cell-based; details: Homo sapiens, read-out: Cell growth inhibition %
Method in brief: as §1

[17] = system: SK-MEL-2; assay: NCI one-dose SRB anti-proliferative screen; format: cell-based; details: Homo sapiens, read-out: Cell growth inhibition %
Method in brief: as §1

[18] = system: OVCAR-3; assay: NCI one-dose SRB anti-proliferative screen; format: cell-based; details: Homo sapiens, read-out: Cell growth inhibition %
Method in brief: as §1

[19] = system: SF-268; assay: NCI one-dose SRB anti-proliferative screen; format: cell-based; details: Homo sapiens, read-out: Cell growth inhibition %
Method in brief: as §1

[20] = system: SF-295; assay: NCI one-dose SRB anti-proliferative screen; format: cell-based; details: Homo sapiens, read-out: Cell growth inhibition %
Method in brief: as §1

[21] = target: T1, EGFR (Homo sapiens, UniProt P00533); assay: EGFR-TK inhibitory assay; format: biochemical; details: read-out: EGFR Inhibition IC50 ± SEM
T1 construct: EGFR cytoplasmic domain (EGFR-CD, amino acids 645–1186); His6 (N); made in house; host or cells: Sf-9 insect cells (baculovirus; pBlueBacHis2B / pFASTBacHTc)

[22] = target: BRAF^V600E; assay: biochemical
Method: To further denature the protein, heat (70° C) was applied for 5 min. […] 10 µL of each reaction was loaded into the precast plates and electrophoresis was allowed to proceed. After completion of electrophoresis, the front part of the precast gel plate (holding hot ATP) was cut and afterwards cast-off. The dried gel was developed using a phosphor screen.

[23] = HCT-15, Colon cancer, NCI one dose
[24] = NCI-H322M, Non-Small Cell Lung Cancer, NCI one dose
[25] = CAKI-1, Renal cancer, NCI one dose
[26] = KM12, Colon cancer, NCI one dose
[27] = HOP-92, Non-Small Cell Lung Cancer, NCI one dose
[28] = NCI-H23, Non-Small Cell Lung Cancer, NCI one dose
[29] = DU-145, Prostate Cancer, NCI one dose
[30] = MDA-MB-231/ATCC, Breast cancer, NCI one dose
[31] = HS 578T, Breast cancer, NCI one dose
[32] = IGROV1, Ovarian Cancer, NCI one dose
[33] = MCF7, Breast cancer, NCI one dose
[34] = SNB-75, CNS Cancer, NCI one dose
[35] = 786-0, Renal cancer, NCI one dose
[36] = A549/ATCC, Non-Small Cell Lung Cancer, NCI one dose
[37] = A498, Renal cancer, NCI one dose
[38] = SK-MEL-2, Melanoma, NCI one dose
[39] = OVCAR-3, Ovarian Cancer, NCI one dose
[40] = SF-268, CNS Cancer, NCI one dose
[41] = SF-295, CNS Cancer, NCI one dose
[42] = HCT-15 (Colon Cancer), NCI one dose 10 µM
[43] = NCI-H322M (Non-Small Cell Lung Cancer), NCI one dose 10 µM
[44] = CAKI-1 (Renal Cancer), NCI one dose 10 µM
[45] = KM12 (Colon Cancer), NCI one dose 10 µM
[46] = HOP-92 (Non-Small Cell Lung Cancer), NCI one dose 10 µM
[47] = NCI-H23 (Non-Small Cell Lung Cancer), NCI one dose 10 µM
[48] = DU-145 (Prostate Cancer), NCI one dose 10 µM
[49] = MDA-MB-231/ATCC (Breast Cancer), NCI one dose 10 µM
[50] = HS 578T (Breast Cancer), NCI one dose 10 µM
[51] = IGROV1 (Ovarian Cancer), NCI one dose 10 µM
[52] = MCF7 (Breast Cancer), NCI one dose 10 µM
[53] = SNB-75 (CNS Cancer), NCI one dose 10 µM
[54] = 786-0 (Renal Cancer), NCI one dose 10 µM
[55] = U251 (CNS Cancer), NCI one dose 10 µM
[56] = A549/ATCC (Non-Small Cell Lung Cancer), NCI one dose 10 µM
[57] = A498 (Renal Cancer), NCI one dose 10 µM
[58] = SK-MEL-2 (Melanoma), NCI one dose 10 µM
[59] = OVCAR-3 (Ovarian Cancer), NCI one dose 10 µM
[60] = SF-268 (CNS Cancer), NCI one dose 10 µM
[61] = SF-295 (CNS Cancer), NCI one dose 10 µM

Chain of BRAF^V600E (P28028 whole entry V585E): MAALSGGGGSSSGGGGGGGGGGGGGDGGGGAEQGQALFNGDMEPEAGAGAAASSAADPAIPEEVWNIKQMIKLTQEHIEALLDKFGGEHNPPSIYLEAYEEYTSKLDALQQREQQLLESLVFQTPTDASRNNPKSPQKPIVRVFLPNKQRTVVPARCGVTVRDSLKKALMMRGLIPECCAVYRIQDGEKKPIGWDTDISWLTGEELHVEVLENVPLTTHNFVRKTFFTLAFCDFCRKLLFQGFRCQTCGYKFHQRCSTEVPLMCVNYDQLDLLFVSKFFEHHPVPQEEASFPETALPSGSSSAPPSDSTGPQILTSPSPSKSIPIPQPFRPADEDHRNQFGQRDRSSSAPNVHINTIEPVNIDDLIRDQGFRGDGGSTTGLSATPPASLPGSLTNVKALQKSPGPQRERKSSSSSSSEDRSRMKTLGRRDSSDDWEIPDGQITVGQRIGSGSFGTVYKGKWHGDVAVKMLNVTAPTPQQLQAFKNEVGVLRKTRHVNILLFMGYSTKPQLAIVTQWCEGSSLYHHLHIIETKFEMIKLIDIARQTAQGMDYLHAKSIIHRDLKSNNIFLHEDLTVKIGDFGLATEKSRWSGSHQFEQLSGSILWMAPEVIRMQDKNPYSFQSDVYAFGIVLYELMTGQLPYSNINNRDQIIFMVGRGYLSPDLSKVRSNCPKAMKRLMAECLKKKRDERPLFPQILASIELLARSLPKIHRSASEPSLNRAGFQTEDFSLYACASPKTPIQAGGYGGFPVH
T1 sequence (P00533 669-1210): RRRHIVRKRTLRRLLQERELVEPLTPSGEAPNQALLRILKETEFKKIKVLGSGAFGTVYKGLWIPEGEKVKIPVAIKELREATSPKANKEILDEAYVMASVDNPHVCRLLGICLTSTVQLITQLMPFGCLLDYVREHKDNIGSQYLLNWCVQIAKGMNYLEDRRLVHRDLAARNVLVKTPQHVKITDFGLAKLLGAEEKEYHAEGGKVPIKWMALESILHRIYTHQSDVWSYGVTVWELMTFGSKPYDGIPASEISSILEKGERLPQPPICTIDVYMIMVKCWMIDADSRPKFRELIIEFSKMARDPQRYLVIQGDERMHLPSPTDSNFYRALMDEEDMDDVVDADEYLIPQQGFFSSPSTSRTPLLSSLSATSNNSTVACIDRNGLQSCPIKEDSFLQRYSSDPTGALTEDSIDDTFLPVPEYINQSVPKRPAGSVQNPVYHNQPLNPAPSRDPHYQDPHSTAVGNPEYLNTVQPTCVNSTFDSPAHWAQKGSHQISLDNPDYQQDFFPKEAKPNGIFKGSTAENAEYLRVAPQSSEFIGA

| Compound | IC50 [21] [µM] | IC50 [22] [µM] | inhibition at 10 µM [1, 42] [%] | inhibition at 10 µM [2, 43] [%] | inhibition at 10 µM [3, 44] [%] | inhibition at 10 µM [4, 45] [%] | inhibition at 10 µM [5, 46] [%] | inhibition at 10 µM [6, 47] [%] | inhibition at 10 µM [7, 48] [%] | inhibition at 10 µM [8, 49] [%] | inhibition at 10 µM [9, 50] [%] | inhibition at 10 µM [10, 51] [%] | inhibition at 10 µM [11, 52] [%] | inhibition at 10 µM [12, 53] [%] | inhibition at 10 µM [13, 54] [%] | inhibition at 10 µM [14, 55] [%] | inhibition at 10 µM [15, 56] [%] | inhibition at 10 µM [16, 57] [%] | inhibition at 10 µM [17, 58] [%] | inhibition at 10 µM [18, 59] [%] | also measured |
| --- | --- | --- | --- | --- | --- | --- | --- | --- | --- | --- | --- | --- | --- | --- | --- | --- | --- | --- | --- | --- | --- |
| COc1cc(/C=C/C(=O)c2ccc(NC(=O)CSc3nnc(-c4ccc5[nH]c(-c6ccccc6)nc5c4)o3)cc2)cc(OC)c1OC [Compound 7e, 2-{5-[2-Phenyl-1 H-benzo[d]imidazol-5-yl]-1,3,4-oxadiazol-2-ylthio}-N-{4-[(E)-3-(3,4,5-trimethoxyphenyl)acryloyl]phenyl}acetamide] | 1.15 ± 0.2 | 0.9 ± 0.1 | – | – | – | – | – | – | – | – | – | – | – | – | – | – | – | – | – | – | inhibition at 10 µM [1, 23]: 12.4%; inhibition at 10 µM [2, 24]: 3.06%; inhibition at 10 µM [3, 25]: 0%; inhibition at 10 µM [4, 26]: 10%; inhibition at 10 µM [5, 27]: 0%; inhibition at 10 µM [6, 28]: 7.28%; inhibition at 10 µM [7, 29]: 9.02%; inhibition at 10 µM [8, 30]: 6.4%; inhibition at 10 µM [9, 31]: 14.5%; inhibition at 10 µM [10, 32]: 2.76%; inhibition at 10 µM [11, 33]: 56.1%; inhibition at 10 µM [12, 34]: 18.9%; inhibition at 10 µM [13, 35]: 24.6%; inhibition at 10 µM ([14]; U251, CNS Cancer, NCI one dose): 19.4%; inhibition at 10 µM [15, 36]: 0%; inhibition at 10 µM [16, 37]: 15.6%; inhibition at 10 µM [17, 38]: 0%; inhibition at 10 µM [18, 39]: 27.9%; inhibition at 10 µM [19, 40]: 2.34%; inhibition at 10 µM [20, 41]: 0% |
| O=C(CSc1nnc(-c2ccc3[nH]c(-c4ccc(Cl)cc4)nc3c2)o1)Nc1ccc(C(=O)/C=C/c2ccc(Cl)cc2)cc1 [Compound 7g, 2-{5-[2-(4-Chlorophenyl)-1 H-benzo[d]imidazol-5-yl]-1,3,4-oxadiazol-2-ylthio}-N-{4-[(E)-3-(4-chlorophenyl)acryloyl]phenyl}acetamide] | 1.7 ± 0.2 | 1 ± 0.2 | 10.2 | 4.64 | 16.4 | 0.67 | 5.81 | 0 | 0 | 9.38 | 11 | 14.4 | 44.8 | 9.09 | 7.38 | 17.8 | 4.52 | 9.85 | 0 | 0 | inhibition at 10 µM [19, 60]: 0.08%; inhibition at 10 µM [20, 61]: 7.04% |
| COc1ccc(/C=C/C(=O)c2ccc(NC(=O)CSc3nnc(-c4ccc5[nH]c(-c6ccc(Cl)cc6)nc5c4)o3)cc2)cc1 [Compound 7h, 2-{5-[2-(4-Chlorophenyl)-1 H-benzo[d]imidazol-5-yl]-1,3,4-oxadiazol-2-ylthio}-N-{4-[(E)-3-(4-methoxyphenyl)acryloyl]phenyl}acetamide] | 2.3 ± 0.2 | 2.7 ± 0.3 | 5.06 | 0 | 2.63 | 0.3 | 0 | 6 | 0 | 1.61 | 5.34 | 4.69 | 20.3 | 1.47 | 0.41 | 3.98 | 0 | 0 | 0 | 0 | inhibition at 10 µM [19, 60]: 0%; inhibition at 10 µM [20, 61]: 0% |
| COc1ccc(-c2nc3cc(-c4nnc(SCC(=O)Nc5ccc(C(=O)/C=C/c6ccc(OC)c(OC)c6)cc5)o4)ccc3[nH]2)cc1 [Compound 7n, 2-{5-[2-(4-Methoxyphenyl)-1 H-benzo[d]imidazol-5-yl]-1,3,4-oxadiazol-2-ylthio}-N-{4-[(E)-3-(3,4-dimethoxyphenyl)acryloyl]phenyl}acetamide] | 1.4 ± 0.2 | 3.7 ± 0.2 | – | – | – | – | – | – | – | – | – | – | – | – | – | – | – | – | – | – | inhibition at 10 µM [1, 23]: 31.8%; inhibition at 10 µM [2, 24]: 5.07%; inhibition at 10 µM [3, 25]: 1.11%; inhibition at 10 µM [4, 26]: 23.4%; inhibition at 10 µM [5, 27]: 0%; inhibition at 10 µM [6, 28]: 19.9%; inhibition at 10 µM [7, 29]: 13.4%; inhibition at 10 µM [8, 30]: 0%; inhibition at 10 µM [9, 31]: 7.35%; inhibition at 10 µM [10, 32]: 12.3%; inhibition at 10 µM [11, 33]: 55.5%; inhibition at 10 µM [12, 34]: 22.1%; inhibition at 10 µM [13, 35]: 8.7%; inhibition at 10 µM ([14]; U251, CNS Cancer, NCI one dose): 25.3%; inhibition at 10 µM [15, 36]: 3.19%; inhibition at 10 µM [16, 37]: 0%; inhibition at 10 µM [17, 38]: 6.27%; inhibition at 10 µM [18, 39]: 14.3%; inhibition at 10 µM [19, 40]: 0.44%; inhibition at 10 µM [20, 41]: 0% |
| COc1ccc(/C=C/C(=O)c2ccc(NC(=O)CSc3nnc(-c4ccc5[nH]c(-c6ccc(OC)c(OC)c6)nc5c4)o3)cc2)cc1 [Compound 7r, 2-{5-[2-(3,4-Dimethoxyphenyl)-1 H-benzo[d]imidazol-5-yl]-1,3,4-oxadiazol-2-ylthio}-N-{4-[(E)-3-(4-methoxyphenyl)acryloyl]phenyl}acetamide] | – | – | 2.32 | 1.05 | 0.08 | 0 | 5.88 | 5.15 | 0 | 4.13 | 13.2 | 2.07 | 24.7 | 1.88 | 0 | 0 | 0 | 0 | 0 | 0 | inhibition at 10 µM [19, 60]: 0%; inhibition at 10 µM [20, 61]: 3.2% |
| COc1cc(-c2nc3cc(-c4nnc(SCC(=O)Nc5ccc(C(=O)/C=C/c6ccccc6)cc5)o4)ccc3[nH]2)cc(OC)c1OC [Compound 7u, 2-{5-[2-(3,4,5-Trimethoxyphenyl)-1 H-benzo[d]imidazol-5-yl]-1,3,4-oxadiazol-2-ylthio}-N-{4-[(E)-3-phenylacryloyl]phenyl}acetamide] | – | – | 12.3 | 0 | 0 | 0.98 | 9.74 | 3.04 | 0 | 4.05 | 9.37 | 29 | 44.7 | 13.8 | 0 | 9.89 | 0.78 | 0 | 0 | 0 | inhibition at 10 µM [19, 60]: 0%; inhibition at 10 µM [20, 61]: 2% |
